In the supplement of paper PMC10307832:

Columns and labels:
Assay in all cases: relative viability (nuclei count vs DMSO), 5 days (fraction); higher = more cells survive
LCLC-103H = test system: LCLC-103H
Outline: (§1)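 Relative viability divides the nuclei count in treated wells by that in vehicle wells. Lung cancer cell lines were seeded in 1536-well plates, dosed by pin tool the next day, and fixed and stained after 5 days in one step with final 0.05% Triton X-100, 1% formaldehyde and 1 ug/ml Hoechst. Dosing was a single drug or a fixed anchor-drug dose plus five library-drug doses (not always all listed) in √10 steps, and values are medians of duplicate plates imaged at 4×.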

HCC-15 = test system: HCC-15
Outline: as §1

PC-14 = test system: PC-14
Outline: as §1

NCI-H1437 = test system: NCI-H1437
Outline: as §1

H3255 = test system: H3255
Outline: as §1

LXF-289 = test system: LXF-289
Outline: as §1

HCC-366 = test system: HCC-366
Outline: as §1

NCI-H2085 = test system: NCI-H2085
Outline: as §1

NCI-H1666 = test system: NCI-H1666
Outline: as §1

ABC-1 = test system: ABC-1
Outline: as §1

HCC-827 = test system: HCC-827
Outline: as §1

NCI-H1975 = test system: NCI-H1975
Outline: as §1

PC-3 [JPC-3] = test system: PC-3 [JPC-3]
Outline: as §1

NCI-H23 = test system: NCI-H23
Outline: as §1

LC-2-ad = test system: LC-2-ad
Outline: as §1

NCI-H2087 = test system: NCI-H2087
Outline: as §1

NCI-H2342 = test system: NCI-H2342
Outline: as §1

SMILES: CCNC(=O)c1noc(-c2cc(C(C)C)c(O)cc2O)c1-c1ccc(CN2CCOCC2)cc1 [Luminespib] + NC(=O)Nc1cc(-c2cccc(F)c2)sc1C(=O)N[C@H]1CCCNC1 [AZD7762] (partner 0.2 µM)
- relative viability (LCLC-103H; first compound 0.002 µM): 0.934
- relative viability (LCLC-103H; first compound 0.006325 µM): 0.699
- relative viability (LCLC-103H; first compound 0.02 µM): 0.639
- relative viability (LCLC-103H; first compound 0.06325 µM): 0.739
- relative viability (LCLC-103H; first compound 0.2 µM): 0.726
- relative viability (HCC-15; first compound 0.002 µM): 1.11
- relative viability (HCC-15; first compound 0.006325 µM): 1.11
- relative viability (HCC-15; first compound 0.02 µM): 1.36
- relative viability (HCC-15; first compound 0.06325 µM): 1.14
- relative viability (HCC-15; first compound 0.2 µM): 0.247
- relative viability (PC-14; first compound 0.002 µM): 0.32
- relative viability (PC-14; first compound 0.006325 µM): 0.38
- relative viability (PC-14; first compound 0.02 µM): 0.179
- relative viability (PC-14; first compound 0.06325 µM): 0.102
- relative viability (PC-14; first compound 0.2 µM): 0.0933
- relative viability (NCI-H1437; first compound 0.002 µM): 1.11
- relative viability (NCI-H1437; first compound 0.006325 µM): 1.04
- relative viability (NCI-H1437; first compound 0.02 µM): 1.15
- relative viability (NCI-H1437; first compound 0.06325 µM): 0.785
- relative viability (NCI-H1437; first compound 0.2 µM): 0.278
- relative viability (H3255; first compound 0.002 µM): 0.857
- relative viability (H3255; first compound 0.006325 µM): 0.794
- relative viability (H3255; first compound 0.02 µM): 0.808
- relative viability (H3255; first compound 0.06325 µM): 0.774
- relative viability (H3255; first compound 0.2 µM): 0.31
- relative viability (LXF-289; first compound 0.002 µM): 1.07
- relative viability (LXF-289; first compound 0.006325 µM): 1.1
- relative viability (LXF-289; first compound 0.02 µM): 1.12
- relative viability (LXF-289; first compound 0.06325 µM): 0.151
- relative viability (LXF-289; first compound 0.2 µM): 0.0914
- relative viability (HCC-366; first compound 0.002 µM): 0.392
- relative viability (HCC-366; first compound 0.006325 µM): 0.302
- relative viability (HCC-366; first compound 0.02 µM): 0.331
- relative viability (HCC-366; first compound 0.06325 µM): 0.0393
- relative viability (HCC-366; first compound 0.2 µM): 0.0222
- relative viability (NCI-H2085; first compound 0.002 µM): 0.923
- relative viability (NCI-H2085; first compound 0.006325 µM): 0.909
- relative viability (NCI-H2085; first compound 0.02 µM): 0.694
- relative viability (NCI-H2085; first compound 0.06325 µM): 0.389
- relative viability (NCI-H2085; first compound 0.2 µM): 0.245
- relative viability (NCI-H1666; first compound 0.002 µM): 0.828
- relative viability (NCI-H1666; first compound 0.006325 µM): 0.835
- relative viability (NCI-H1666; first compound 0.02 µM): 0.903
- relative viability (NCI-H1666; first compound 0.06325 µM): 0.78
- relative viability (NCI-H1666; first compound 0.2 µM): 0.589
- relative viability (ABC-1; first compound 0.002 µM): 0.822
- relative viability (ABC-1; first compound 0.006325 µM): 0.737
- relative viability (ABC-1; first compound 0.02 µM): 0.715
- relative viability (ABC-1; first compound 0.06325 µM): 0.248
- relative viability (ABC-1; first compound 0.2 µM): 0.212
- relative viability (HCC-827; first compound 0.002 µM): 0.162
- relative viability (HCC-827; first compound 0.006325 µM): 0.234
- relative viability (HCC-827; first compound 0.02 µM): 0.16
- relative viability (HCC-827; first compound 0.06325 µM): 0.124
- relative viability (HCC-827; first compound 0.2 µM): 0.0952
- relative viability (NCI-H1975; first compound 0.002 µM): 0.686
- relative viability (NCI-H1975; first compound 0.006325 µM): 0.735
- relative viability (NCI-H1975; first compound 0.02 µM): 0.348
- relative viability (NCI-H1975; first compound 0.06325 µM): 0.167
- relative viability (NCI-H1975; first compound 0.2 µM): 0.165
- relative viability (PC-3 [JPC-3]; first compound 0.002 µM): 0.747
- relative viability (PC-3 [JPC-3]; first compound 0.006325 µM): 0.86
- relative viability (PC-3 [JPC-3]; first compound 0.02 µM): 0.492
- relative viability (PC-3 [JPC-3]; first compound 0.06325 µM): 0.319
- relative viability (PC-3 [JPC-3]; first compound 0.2 µM): 0.337
- relative viability (NCI-H23; first compound 0.002 µM): 0.258
- relative viability (NCI-H23; first compound 0.006325 µM): 0.247
- relative viability (NCI-H23; first compound 0.02 µM): 0.259
- relative viability (NCI-H23; first compound 0.06325 µM): 0.133
- relative viability (NCI-H23; first compound 0.2 µM): 0.11
- relative viability (LC-2-ad; first compound 0.002 µM): 0.802
- relative viability (LC-2-ad; first compound 0.006325 µM): 0.854
- relative viability (LC-2-ad; first compound 0.02 µM): 0.833
- relative viability (LC-2-ad; first compound 0.06325 µM): 0.146
- relative viability (LC-2-ad; first compound 0.2 µM): 0.16
- relative viability (NCI-H2087; first compound 0.002 µM): 1.34
- relative viability (NCI-H2087; first compound 0.006325 µM): 1.1
- relative viability (NCI-H2087; first compound 0.02 µM): 1.45
- relative viability (NCI-H2087; first compound 0.06325 µM): 0.19
- relative viability (NCI-H2087; first compound 0.2 µM): 0.117
- relative viability (NCI-H2342; first compound 0.002 µM): 0.472
- relative viability (NCI-H2342; first compound 0.006325 µM): 0.434
- relative viability (NCI-H2342; first compound 0.02 µM): 0.371
- relative viability (NCI-H2342; first compound 0.06325 µM): 0.492
- relative viability (NCI-H2342; first compound 0.2 µM): 0.26
